Tests used:
[1] = Comparative brain/liver uptake of 14C-labeled compounds (Brain Penetration Index)
[2] = test system: general motor activity; test: General motor activity of rats (dose-response, Fig. 1); assay type: in vivo; settings: n = 6 per dose
Description: • Figures 1A and 1 B show the effects of cholesteryl-GABA on general motor activity.

[3] = n-Octanol/water partition coefficient; assay type: physicochemical; settings: 5 ml n-octanol / 5 ml water, stirring 18 hours
Procedure: A Partition Coefficient was defined by the equation: [formula] representing the amount of the ester taken up per ml of n-octanol relative to the amount of the same compound taken up per ml of water.
The n-octanol/water partition coefficients were obtained from measurements of the distribution of 1, 3, 5 and 6 pmol quantities of each ^14C-labeled compound into a mixture of 5 ml of n-octanol and 5 ml water. At each concentration, the amount of labeled compound in the aqueous and n-octanol phases was calculated from the amount of radioactive material present after stirring for 18 hours.

[4] = biological target: GABA "receptors"; test: Inhibition of [3H]GABA binding to synaptic membranes from rat cerebellum; settings: [3H]GABA (15 nM); synaptic membrane preparations from rat cerebellum
Procedure: IC50 values were determined by fitting data to linearized transformations, based on including at least two concentrations of antagonists above and below the IC50, with at least triplicate replication per concentration.

[5] = Enzymatic hydrolysis of cholesteryl [14C]GABA ester by rat brain homogenate; assay type: in vitro ADME; settings: 3 mg/ml, 37°C, S1 fractions of rat brain homogenates (0.8 mg/ml of protein)
Description: Cholesterol hydrolases and esterases are present in mammalian brain tissue.

[6] = test system: CAI pyramidal cells; assay type: cell-based, Sprague-Dawley rats
Procedure: Transverse slices of hippocampus (350-375 µm thick) were prepared from Sprague-Dawley rats (200-300 g) and transferred onto a nylon net fixed over a 1.5 ml superfusion chamber. The slices were maintained at 32-33°C in a humidified atmosphere of 95%/5% 02/C02. The standard medium consisted of (in mM): NaCl, 125; KCI, 3.5; CaC12,2; MgS04, 1.5; NaH2PO4, 1; NaHC03, 24; and glucose, 10. Low chloride medium was prepared by substituting sodium isethionate for sodium chloride.
Extracellular potentials were recorded with NaCI-fitted micropipettes, and stimulus pulses were applied through bipolar platinum wire electrodes. The various drugs were dissolved in fresh medium (without glucose and phosphate) and applied to the surface of the tissue by pressure ejection from a micropipette, Sakai, Swartz and Woody, (1979).
The inhibitory effectiveness of various compounds was investigated by measuring their ability to suppress the extracellular population spike recorded from the hippocampal CAI pyramidal layer and elicited by stimulation of stratum radiatum axons. The amplitude of this monosynaptic population spike is essentially proportional to the number of pyramidal cells discharging in response to a stimulus volley, Andersen, Bliss and Skrede, (1971).
The various compounds were applied as droplets to the pyramidal layer approximately 75 µm from the recording electrode. The volume of a single drug application was about 300 picoliters. […] The volume ejected from each pipette was calibrated prior to use by measuring the diameter of the ejected droplet and adjusting the duration of the pressure pulse (usually 100-500 msec) until a standard diameter was reached. A constant droplet volume was used throughout the experiments. Where dose-response information was required, several pipettes with different drug concentrations were used.

[7] = 1 hr after administration; TLC
[8] = 50 μmol/kg s.c., 5 min, mice, mean ± S.E.M. (n = 3)

Q: What does the source list for “(3-Cholesteryl)-gamma-Aminobutyrate [Compound 6]”?
A: (BRAIN) [1, 8]: 0.17 ± 0.03 nmol/g; (LIVER) [1, 8]: 0.69 ± .08 nmol/g; BPI [1, 8]: 25 ± 7%; (BRAIN) ([1]; 50 μmol/kg s.c., 15 min, mice): 0.67 nmol/g; (LIVER) ([1]; 50 μmol/kg s.c., 15 min, mice): 1.19 nmol/g; BPI ([1]; 50 μmol/kg s.c., 15 min, mice): 56%; (BRAIN) ([1]; 50 μmol/kg s.c., 60 min, mice): 0.79 nmol/g; (LIVER) ([1]; 50 μmol/kg s.c., 60 min, mice): 0.92 nmol/g; BPI ([1]; 50 μmol/kg s.c., 60 min, mice): 86%; (BRAIN) ([1]; 50 μmol/kg s.c., 180 min, mice): 0.60 nmol/g; (LIVER) ([1]; 50 μmol/kg s.c., 180 min, mice): 1.89 nmol/g; BPI ([1]; 50 μmol/kg s.c., 180 min, mice): 32%; increase of 5-min BPI over GABA ([1]; 5 min after s.c. injection, relative to GABA): 25 fold; BPI ([1]; Table IX summary, 5-min Brain Penetration Index): 25; accumulation of radioactivity in brain persisted post-injection ([1]; s.c., mice): 45 to 60 min; i.p. injected dose at which motor activity was reduced by 50% [2]: 8 µmol/kg; KOW: Octanol/Water Partition Coefficient [3]: 110.; IC50 [4]: 10 µM; Amount of Unreacted Substrate (6) ([5]; 10 min, 40 μl aliquots, TLC): 53.0 ± 7.0 nmol; Amount of Unreacted Substrate (6) ([5]; 30 min): 43.5 ± 6.3 nmol; Amount of Unreacted Substrate (6) ([5]; 60 min): 34.5 ± 4.9 nmol; duration of the effect relative to a similar dose of GABA [6]: roughly an order of magnitude longer; effect after incubation of slices in PMSF (0.5 mM) for about 45 min [6]: significantly reduced; effect with picrotoxin (10 µM) in the medium or low chloride medium [6]: essentially eliminate the C-G effect; recovery of the population spike amplitude to 90% of the pre-droplet control value ([6]; after an approximately half-maximal dose): about 14 min; inhibition of the evoked population spike ([6]; droplets applied to the CAI pyramidal layer): dose-dependent inhibition; labeled compound present as intact molecules in brain homogenates [7]: about 70%
